One molecule from patent US12595251B2, “Amidines and amidine analogs for the treatment of bacterial infections and potentiation antibiotics” (GEORGIA STATE UNIVERSITY RESEARCH FOUNDATION, INC., priority 2018, dated 2026) can be followed below.

Where a name gives a salt, the structure may show the parent alone.

Experiment [1] concerns MRSA. Kind of experiment: Sensitization of MRSA toward antibiotics (OD600, 24 h). Type of experiment: cell-based, Staphylococcus aureus. The procedure:
Bacteria was cultured with rifampicin at various concentrations in the presence or absence of Compound M-1 for 24 hours at 37° C. and bacterial growth density was determined by measuring OD600. The y-axis is growth density measured in percent. The x-axis is rifampicin concentration measured in micrograms per milliliter (***: p<0.01).
Compound M-1 (2.7 μg/ml) sensitizes MRSA towards existing antibiotics such as rifampicin (32-fold) (FIG. 22B) and trovafloxacin (16-fold). Rifampicin is the first line of defense against MRSA and many MRSA stains grow resistance to rifampicin through overexpression of efflux pump and other mechanisms. Combined with Compound M-1, rifampicin can be used more effectively against MRSA.

Experiment [2] concerns wild type B. subtilis. The experiment in a line: Sensitization of B. subtilis toward antibiotics (MIC, OD600, 24 h). Type of experiment: cell-based, Bacillus subtilis. The protocol:
FIG. 22A is a bar graph showing that Compound M-1 sensitizes B. subtilis towards rifampicin as described in Example 13. Bacteria was cultured with rifampicin at various concentrations in the presence or absence of Compound M-1 for 24 hours at 37° C. and bacterial growth density was determined by measuring OD600. The y-axis is growth density measured in percent. The x-axis is rifampicin concentration measured in micrograms per milliliter (***: p<0.01).
Compound M-1 can sensitize Gram-positive bacteria such as B. subtilis towards traditional antibiotics. […] The sensitization fold is 32-fold for Compound M-1 and the FIC index is 0.14.

For experiment [3], the system named is E. coli. Kind of experiment: E. coli viability with antibiotic in absence or presence of compound (OD600, 20 h). Type of experiment: cell-based, Escherichia coli. The note with it: M-1 25 μM or 12 μM; A-1 12 μM; A-8; 20 h. The protocol: (§1) Bacterial viability was then determined by measuring density using OD600.
Experiment [4] deals with E. coli and MRSA. Kind of experiment: Relative ratio of E. coli and MRSA under trovafloxacin with/without Compound A-8. Type of experiment: cell-based, Escherichia coli; Staphylococcus aureus. An excerpt:
FIG. 23A is a comparison of the relative ratio of E. coli and MRSA treated with the antibiotic trovafloxacin in the absence (pie chart on the left) and in the presence (pie chart on the right) of Compound A-8 as described in Example 14. In the absence of Compound A-8, trovafloxacin preferred to inhibit E. coli and the bacterial population was 78% MRSA. However, Compound A-8 sensitizes trovafloxacin to MRSA.
(§2) As a proof of concept, the relative ratio of E. coli and MRSA (FIG. 23A) or B. subtilis and MRSA (FIG. 23 B) was measured with and without Compound A-8. […] However, when trovafloxacin (8 ng/ml) is supplied with 1.5 μg/ml of Compound A-8, MRSA inhibition was achieved and E. coli was the dominant species (89% of the bacteria population).

Experiment [5] has as its system B. subtilis and MRSA. The experiment in a line: Relative ratio of B. subtilis and MRSA under trovafloxacin with/without Compound A-8. Type of experiment: cell-based, Bacillus subtilis; Staphylococcus aureus. The protocol:
FIG. 23B is a comparison of the relative ratio of B. sub and MRSA treated with the antibiotic trovafloxacin in the absence (pie chart on the left) and in the presence (pie chart on the right) of Compound A-8 as described in Example 14. […] However, Compound A-8 sensitizes trovafloxacin to MRSA.
as §2

Experiment [6] relates to B. subtilis. The experiment in a line: B. subtilis viability with antibiotic in absence or presence of compound (OD600, 20 h). The note with it: M-1 12.5 or 6 μM; A-2 6 or 12.5 μM; A-8; 20 h. Type of experiment: cell-based, Bacillus subtilis. The protocol: Bacterial viability was then determined by measuring density using OD600. […] B. subtilis was also cultured with either novobiocin or tetracycline at varying concentrations either in the absence or presence of compound M-1 (12.5 μM) for 20 hours. Bacterial viability was subsequently determined by measuring density using OD600.
as §1

Experiment [7] deals with Klebsiella pneumoniae. The experiment in a line: Sensitization of Klebsiella pneumoniae to clarithromycin. Particulars: FIG. 16. Type of experiment: cell-based. An excerpt: The x-axis is clarithromycin measured in μg/ml and the y-axis is growth measured in percent.
Experiment [8] relates to wild-type E. coli. Kind of experiment: Sensitization of wild-type E. coli toward antibiotics (MIC of antibiotic with/without sensitizer). Type of experiment: cell-based, Escherichia coli. The procedure:
Bacteria were cultured with the antibiotic at various concentrations in the presence or absence of bacterial sensitizer for 24 hours at 37° C. Bacterial growth density was determined by measuring OD600 (absorbance measured at a wavelength of 600 nm). […]
The formula for calculating FIC is shown below: […]

Setting [9] is: trovafloxacin in presence of Compound A-8.

`Cc1cc(CCc2ccc(C(=N)N)cc2)cc(CCc2ccc(C(=N)N)cc2)c1` [Compound A-8, 4,4′-((5-Methyl-1,3-phenylene)bis(ethane-2,1-diyl))dibenzimidamide Dihydrochloride]: in experiment [1], the “Concentration required to sensitize MRSA towards rifampicin 32-fold” value was 1.5 µg/mL. Besides, the “Sensitization of MRSA towards rifampicin (qualitative)” value in experiment [1] (FIG. 22B, 24 h, 37 °C) is given as “sensitize MRSA towards rifampicin”. The “Concentration required to sensitize B. subtilis towards rifampicin 32-fold” value in experiment [2] worked out at 3 µg/mL. The “E. coli growth inhibition, compound in combination with erythromycin” value in experiment [3] is “growth inhibition was also observed”. Moreover, the “E. coli share of the bacteria population (E. coli + MRSA)” value in experiment [4] (trovafloxacin (8 ng/ml) with 1.5 μg/ml of Compound A-8) was 89%. The “MRSA share of the bacteria population (E. coli + MRSA)” value in experiment [4] (setting [9]) was found to be 11%. The “B. subtilis share of the bacteria population (B. subtilis + MRSA)” value in experiment [5] (8 ng/ml trovafloxacin and 1.5 μg/ml of Compound A-8) is listed as 99.5%. Moreover, in experiment [5] (setting [9]), the “MRSA share of the bacteria population (B. subtilis + MRSA)” value is listed as 0.5%. For the same molecule, in experiment [6], the “B. subtilis growth inhibition, compound in combination with erythromycin vs erythromycin alone” value is reported as “significant bacterial growth inhibition”. Also, the “Sensitization of Klebsiella pneumoniae to clarithromycin” value in experiment [7] is reported as “sensitization of Klebsiella pneumoniae to clarithromycin”. The “Concentration required to sensitize wild type E. coli towards rifampicin 32-fold” value in experiment [8] worked out at 7 µg/mL. Besides, the Sensitization fold in experiment [8] (compound at 5 μg/ml, strain and antibiotic not stated in Table 8) came out at 16.
